According to patent US9649317B2, “Heterocyclic compounds and their use for the treatment of neurodegenerative tauopathies” (The Trustees of The University of Pennsylvania, priority 2012, dated 2017):
Entries after “also recorded” stand apart in the source; their conditions may differ. Like-named read-outs stand apart in the source and are kept apart here.

Tests used:
[1] = Determination of plasma and brain compound concentrations; format: in vivo; conditions: mouse, 1 hour after a 5 mg/kg intraperitoneal injection
Experimental: For utility in neurodegenerative diseases, MT-stabilizing compounds must cross the blood-brain barrier (BBB) and enter the brain. As summarized in Table 7, a number of examples show concentrations in the brain that exceed 0.5 μM an hour after administration of a 5 mg/kg dose, with brain-to-plasma concentration ratios of ˜0.3 or higher.
Mouse brains were homogenized in 10 mM ammonium acetate, pH 5.7 (1:2; w/v) using a handheld sonic homogenizer. Mouse plasma was obtained from blood that was collected into a 1.5 ml tube containing 0.5M EDTA solution and which was centrifuged for 10 minutes at 4500 g at 4° C. Aliquots (50 μl) of brain homogenates (50% w/v in 100 mM NH4OAC pH 5.75) or plasma were mixed with 0.2 ml of acetonitrile, centrifuged at 15,000 g, and the resulting supernatant was used for subsequent LC-MS/MS analysis. The LC-MS/MS system was comprised of an Aquity UPLC and a TQ MS that was controlled using MassLynx software (Waters Corporation, Milford, Mass., USA). Compounds were detected using multiple reaction monitoring (MRM) of their specific collision-induced ion transitions. Samples were separated on an Aquity BEH C18 column (1.7 μm, 2.1×50 mm) at 35° C. Operation was in positive electrospray ionization mode, with mobile phase A of 0.1% (v/v) formic acid, and B of acetonitrile with 0.1% (v/v) formic acid. Injections of 5 μl were separated at a flow rate of 0.6 mL/min using a gradient from 5% to 95% B over two minutes, followed by wash and re-equilibration steps. The MS was operated with a desolvation temperature of 450° C. and a source temperature of 150° C. Desolvation and source nitrogen gas flows were 900 L/hr and 50 L/hr, respectively. Source and MS/MS voltages were optimized for each compound using the MassLynx auto tune utility. To account for possible matrix effects on analytes, standard curves were generated for each compound from brain homogenate and plasma samples that had compound added at 24, 240, 2400 and 24000 nM. The standard curve samples were extracted and analyzed in an identical fashion as the corresponding tissue-derived samples, and peak areas were plotted against concentration and a linear regression curve was used to obtain estimated concentrations of the tissue-derived samples using the peak areas. In all cases, the tissue-derived sample peak areas fell within the linear portion of standard curves that were prepared and analyzed concurrently with the samples.

[2] = system: brain α-tubulin that is acetylated (AcTub); assay: Determination of brain acetyl-tubulin levels; format: in vivo, CD1 mice; conditions: wild-type mice, once-daily 1 mg/kg dose, 3 days (FIG. 14)
[3] = system: acetyl-tubulin (AcTub) in HEK/QBI 293 cells; assay: Microtubule stabilization assay: acetyl-tubulin (AcTub) ELISA after compound treatment; format: cell-based; conditions: for change in acetyl-tubulin (AcTub), in words: relative to vehicle-treated cells (FIG. 1, Tables 5 and 6); for AcTub elevation compared with epoD: at 100 nM (FIG. 1)
From the text: (§1) The MT-stabilizing properties of triazolopyrimidines was investigated in a cell-free MT-polymerization assay, as well in a cell-based assay (HEK/QBI 293 cells) that measures changes in acetyl-tubulin (AcTub), a biomarker of stable MTs. (Laferriere, N.; MacRae, T.; Brown, D. Tubulin synthesis and assembly in differentiating neurons. Biochemistry and Cell Biology 1997, 75, 103-117; Black, M.; Baas, P.; Humphries, S. Dynamics of alpha-tubulin deacetylation in intact neurons. J Neurosci 1989, 9, 358).
as §1, with “properties of additional triazolopyrimidines, phenylpyrimidines, and pyridazines was investigated” for “properties of triazolopyrimidines was investigated”, “well in the aforementioned cell-based assay” for “well in a cell-based assay”, “of stable MTs (Laferriere, N.;” for “of stable MTs. (Laferriere, N.;”
The HEK293 cell subclone, QBI293, was maintained in DMEM supplemented with 10% fetal calf or bovine serum, 1% penicillin/streptomycin antibiotic solution and 1% glutamine at 37° C. in 5% CO2. Cells were plated into 6-well plates at a density of 800,000 cells/well. […] Test compounds were added at multiple concentrations to the test wells and incubated for 4 h. Subsequently, the media was removed and the cells were washed with 1 ml of ice-cold phosphate-buffered saline (PBS). After removal of PBS, 0.2 ml of ice-cold RIPA (0.5% sodium deoxycholate, 0.1% SDS, 1% NP-40, 5 mM EDTA, pH 8.0) containing protease inhibitor mix (1 μg/ml each of pepstatin, leupeptin, TLCK, TPCK and trypsin inhibitor), 1 mM PMSF and 1 μM trichostatin A was added to the wells. The wells were then scraped using a cell scraper and pipetted into 1.5 ml microfuge tubes. The tubes were sonicated with a handheld sonicator at 20× on a power setting of 2, followed by centrifugation for 30 min at 15,000 rpm at 4° C. Supernatants were removed and quantified for protein concentration and the acetyl-tubulin levels were determined using an ELISA as described.
384-well plates were coated with 12G10α-tubulin antibody (Developmental Studies Hybridoma Bank at the University of Iowa; 10 μg/ml) in 30 μl of cold 0.1 M bicarbonate buffer. After overnight incubation at 4° C., the plates were washed with cold PBS, followed by the addition of Block-Ace solution and overnight incubation at 4° C. The blocking solution was removed and 10 μl of EC buffer (0.02 M sodium phosphate, pH 7.0, 2 mM EDTA, 0.4 M NaCl, 0.2% bovine serum albumin, 0.05% CHAPS, 0.4% BlockAce and 0.05% NaN3) was added to each well. Cell culture supernatants were diluted in EC buffer to final protein concentrations of 9, 3, 1.5 and 0.5 μg/30 μl, and 30 μl of each were added to wells in duplicate and plates were subsequently sealed. After overnight incubation at 4° C., the plates were aspirated and washed with cold PBS containing 0.05% Tween-20 and 0.05% thimerisol (PBS-Tween buffer), followed by addition of 30 μl/well of HRP-conjugated acetyl-tubulin antibody (6-11B-1 antibody from Sigma-Aldrich) that was prepared with a Peroxidase Labeling Kit following the manufacturer's instructions that was subsequently diluted 1:1000 in C buffer (0.02 M sodium phosphate, pH 7.0, 2 mM EDTA, 0.4 M NaCl, 1% bovine serum albumin and 0.05% thimerisol). The plates were incubated at room temperature for 4 h on a platform rocker, followed by washing with cold PBS-Tween buffer. Peroxidase substrate solution (30 μl) was added and the reaction was quenched after 5-10 min by addition of 30 μl of 10% phosphoric acid. Plates were read on a SpectraMax M5 plate reader at 450 nm. Because an acetyl-tubulin standard is not available, all data were normalized to a control treatment condition (e.g., no compound addition).

[4] = system: detyrosinated α-tubulin (GluTub); assay: Detyrosinated α-tubulin (GluTub) in the cell-based studies; conditions: data not shown
[5] = system: AcTub-positive MTs in HEK/QBI293 cells; assay: Acetyl tubulin immunofluorescence; format: cell-based; conditions: 4 h incubation
Experimental: The HEK293 cell subclone, QBI293, was plated onto poly-D-lysine-coated glass coverslips at 50,000 cells/ml in DMEM supplemented with 10% fetal calf or bovine serum, 1% penicillin/streptomycin antibiotic solution and 1% glutamine and maintained overnight at 37° C. in 5% CO2. The next day, cells were left untreated or were treated with 100 nM epothilone D, 100 nM CNDR-51533 or 1 μM colchicine. After an additional 4 h of incubation at 37° C. in 5% CO2, cells were washed twice with PBS, and then fixed for 15 min in PBS containing 4% paraformaldehyde. The cells were again washed twice with PBS, and permeabilized with 0.1% Triton X-100 in PBS for 15 min. Following the Triton X-100 treatment, the cells were washed twice in PBS, and treated with PBS containing 3% bovine serum albumin for 1 h. Acetyl-tubulin antibody was subsequently added (1:1000 dilution) and incubated for 1 h. Cells were then washed cells 3×5 min with 0.1% Triton X-100 in PBS, and secondary antibody (goat-anti-mouse labeled with Alexa fluor 488 at 1:1000) was added and allowed to incubate for 1 h. […] Finally, the cells were washed once with PBS, followed by H2O, and the cover slips were mounted onto slides with Fluoromount G. Images were acquired on a microscope equipped for fluorescence detection. […]

[6] = mouse, in vivo; cited from earlier work
[7] = brain, ip, read-out: Brain nM (SD)
[8] = plasma, ip, read-out: Plasma nM (SD)

Row | concentration at 1 h [1, 7] [nM] | concentration at 1 h [1, 8] [nM] | Brain/Plasma [1] | Molecule | change in acetyl-tubulin (AcTub), in words [3] | change in detyrosinated α-tubulin (GluTub) [4] | further results
1 | 701 | 2120 | – | C[C@H](Nc1nc(-c2ccccn2)nc(Cl)c1-c1c(F)cc(OCCCN(C)C)cc1F)C(F)(F)F [CNDR-51561, (S)-6-Chloro-5-(4-(3-(dimethylamino)propoxy)-2,6-difluorophenyl)-2-(pyridin-2-yl)-N-(1,1,1-trifluoropropan-2-yl)pyrimidin-4-amine] | – | – | Kp at 1 h ([1]; brain/plasma, ip): 0.33
2 | 2870 | 4950 | 0.58 | C[C@H](Nc1nc(-c2cnccn2)nc(Cl)c1-c1c(F)cc(F)cc1F)C(F)(F)F [CNDR-51549, (S)-6-chloro-2-(pyrazin-2-yl)-5-(2,4,6-trifluorophenyl)-N-(1,1,1-trifluoropropan-2-yl)pyrimidin-4-amine] | – | – | AcTub levels in the brain [2]: increase of AcTub levels in the brains; also recorded: increase in the fraction of brain α-tubulin that is acetylated
3 | – | – | – | Fc1cc(F)c(-c2c(Cl)nc3ncnn3c2NCC(F)(F)F)c(F)c1 [CNDR-51539, 5-Chloro-N-(2,2,2-trifluoroethyl)-6-(2,4,6-trifluorophenyl)-[1,2,4]triazolo[1,5-a]pyrimidin-7-amine] | dose-dependent elevation in AcTub | significant increases of detyrosinated α-tubulin (GluTub) | –
4 | – | – | – | CNCCCOc1cc(F)c(-c2c(Cl)nc3ncnn3c2N[C@@H](C)C(F)(F)F)c(F)c1 [CNDR-51533, (S)-5-Chloro-6-(2,6-difluoro-4-(3-(methylamino)propoxy)phenyl)-N-(1,1,1-trifluoropropan-2-yl)-[1,2,4]triazolo[1,5-a]pyrimidin-7-amine, reference compound] | dose-dependent elevation in AcTub | significant increases of detyrosinated α-tubulin (GluTub) | AcTub elevation compared with epoD [3]: significantly more effective than epoD; AcTub immunofluorescence, MT structure ([5]; 100 nM, relative to control cells): large increase in highly organized, AcTub-positive MTs; crossing of the blood-brain barrier (BBB), previously described agents [6]: do not cross the BBB
5 | 1480 | 4320 | 0.34 | C[C@H](Nc1nc(-c2ccccn2)nc(Cl)c1-c1c(F)cc(F)cc1F)C(F)(F)F [CNDR-51552, (S)-6-chloro-2-(pyridin-2-yl)-5-(2,4,6-trifluorophenyl)-N-(1,1,1-trifluoropropan-2-yl)pyrimidin-4-amine] | – | – | –
6 | – | – | – | (S)-6-Chloro-5-(2,6-difluoro-4-(3-(methylamino)propoxy)phenyl)-2-(pyridin-2-yl)-N-(1,1,1-trifluoropropan-2-yl)pyrimidin-4-amine [CNDR-51562] | – | – | dose of maximal effect (AcTub increase) ([3]; 4 h treatment): 0.1 µM; Fold-Increase in AcTub ([3]; 4 h treatment, at the dose of maximal effect, relative to control): 6.2 fold
7 | – | – | – | COc1cc2c(c(OC)c1OC)-c1ccc(OC)c(=O)cc1[C@@H](NC(C)=O)CC2 [colchicine] | – | – | AcTub immunofluorescence staining ([5]; 1 μM, data not shown): significant loss of AcTub staining
8 | – | – | – | CNCCCOc1cc(F)c(-c2c(Cl)nc3ncnn3c2NCC(F)(F)F)c(F)c1 [CNDR-51534, 5-Chloro-6-(2,6-difluoro-4-(3-(methylamino)propoxy)phenyl)-N-(2,2,2-trifluoroethyl)-[1,2,4]triazolo[1,5-a]pyrimidin-7-amine] | dose-dependent elevation in AcTub | significant increases of detyrosinated α-tubulin (GluTub) | AcTub elevation compared with epoD [3]: significantly more effective than epoD

Row | Molecule | concentration at 1 h [1, 7] [nM] | concentration at 1 h [1, 8] [nM] | Brain/Plasma [1] | change in acetyl-tubulin (AcTub), in words [3] | change in detyrosinated α-tubulin (GluTub) [4] | further results
9 | C[C@H](Nc1c(-c2c(F)cc(OCCCN(C)C)cc2F)c(Cl)nc2ncnn12)C(F)(F)F [CNDR-51555, (S)-5-Chloro-6-(4-(3-(dimethylamino)propoxy)-2,6-difluorophenyl)-N-(1,1,1-trifluoropropan-2-yl)-[1,2,4]triazolo[1,5-a]pyrimidin-7-amine] | 1350 | 4930 | 0.27 | – | – | –
